≈ marks a conversion by molar mass, not a printed value.
Assays:
Type in all cases: cell-based
[1] = test system: Pseudomonas aeruginosa A; experiment: MIC, microtitre using Nutrient broth; settings: Pseudomonas aeruginosa; Pseudomanas aeruginosa A; Microtitre using Nutrient broth; inoculum 0.001 ml of an undilute overnight broth culture; unit inferred; read-out: MIC Broth
Description: (§1) The ninimum inhibitory concentrations (MIC) cf this compound required to inhibit the growth of various bacteria are tabulated balow: […]

[2] = test system: Escherichia coli JT 39; experiment: MIC, microtitre using Nutrient broth; settings: JT39; Escherichia coli JT 39; Microtitre using Nutrient broth; inoculum 0.001 ml of an undilute overnight broth culture; unit inferred; read-out: MIC Broth
Description: as §1

[3] = test system: Staphylococcus aureus Russell; experiment: MIC, microtitre using Nutrient broth; settings: Staphylococcus aureus Russell; Microtitre using Nutrient broth; inoculum 0.001 ml of an undilute overnight broth culture; unit inferred; read-out: MIC Broth
Description: as §1

[4] = test system: E. coli ESS; experiment: MIC, microtitre using Nutrient broth; settings: Escherichia coli, inoculum 0.001 ml of an undilute overnight broth culture, unit inferred
Description: as §1

[5] = test system: Streptococcus faecalis I; experiment: MIC, microtitre using Nutrient broth; settings: Enterococcus faecalis, inoculum 0.001 ml of an undilute overnight broth culture, unit inferred
Description: as §1

[6] = test system: Serratia marcescens US20; experiment: MIC, microtitre using Nutrient broth; settings: inoculum 0.001 ml of an undilute overnight broth culture, unit inferred
Description: as §1

[7] = test system: Enterobacter cloacae N1; experiment: MIC, microtitre using Nutrient broth; settings: Microtitre using Nutrient broth, inoculum 0.001 ml of an undilute overnight broth culture, unit inferred
Description: as §1

[8] = test system: Escherichia coli 0111; experiment: MIC, microtitre using Nutrient broth; settings: Microtitre using Nutrient broth, inoculum 0.001 ml of an undilute overnight broth culture, unit inferred
Description: as §1

[9] = test system: Shigella sonnei MB 11967; experiment: MIC, microtitre using Nutrient broth; settings: MB11967, inoculum 0.001 ml of an undilute overnight broth culture, unit inferred
Description: as §1

[10] = test system: Staphylococcus aureus Oxford; experiment: MIC, microtitre using Nutrient broth; settings: Staphylococcus aureus Oxford; Microtitre using Nutrient broth; inoculum 0.001 ml of an undilute overnight broth culture; unit inferred; read-out: MIC Broth
Description: as §1

[11] = test system: Citrobacter freundii E8; experiment: MIC, microtitre using Nutrient broth; settings: inoculum 0.001 ml of an undilute overnight broth culture, unit inferred
Description: as §1

[12] = test system: Proteus mirabilis C977; experiment: MIC, microtitre using Nutrient broth; settings: Proteus mirabilis C977; Microtitre using Nutrient broth; inoculum 0.001 ml of an undilute overnight broth culture; unit inferred; read-out: MIC Broth
Description: as §1

[13] = test system: Proteus morganii I580; experiment: MIC, microtitre using Nutrient broth; settings: Morganella morganii, inoculum 0.001 ml of an undilute overnight broth culture, unit inferred
Description: as §1

[14] = test system: Klebsiella aerogenes A; experiment: MIC, microtitre using Nutrient broth; settings: Klebsiella aerogenes A; Microtitre using Nutrient broth; inoculum 0.001 ml of an undilute overnight broth culture; unit inferred; read-out: MIC Broth
Description: as §1

[15] = test system: Streptococcus pyogenes CN10; experiment: MIC, microtitre using Nutrient broth; settings: inoculum 0.001 ml of an undilute overnight broth culture, unit inferred
Description: as §1

[16] = test system: Pseudomonas aeruginosa A; experiment: MIC, DST agar + 10% horse blood; settings: Pseudomonas aeruginosa, read-out: MIC Agar
Description: as §1

[17] = test system: Escherichia coli JT 39; experiment: MIC, DST agar + 10% horse blood; settings: JT39; Escherichia coli JT 39; DST agar + 10% horse blood; inoculum 0.001 ml of an undilute overnight broth culture; unit inferred; read-out: MIC Agar
Description: as §1

[18] = test system: Staphylococcus aureus Russell; experiment: MIC, DST agar + 10% horse blood; settings: Staphylococcus aureus Russell; DST agar + 10% horse blood; inoculum 0.001 ml of an undilute overnight broth culture; unit inferred; read-out: MIC Agar
Description: as §1

[19] = test system: Proteus vulgaris W091; experiment: MIC, DST agar + 10% horse blood; settings: W091; Proteus vulgaris WO91; DST agar + 10% horse blood; inoculum 0.001 ml of an undilute overnight broth culture; unit inferred; read-out: MIC Agar
Description: as §1

[20] = test system: E. coli ESS; experiment: MIC, DST agar + 10% horse blood; settings: Escherichia coli, inoculum 0.001 ml of an undilute overnight broth culture, unit inferred
Description: as §1

[21] = test system: Streptococcus faecalis I; experiment: MIC, DST agar + 10% horse blood; settings: Enterococcus faecalis; Streptococcus faecalis I; DST agar + 10% horse blood; inoculum 0.001 ml of an undilute overnight broth culture; unit inferred; read-out: MIC Agar
Description: as §1

[22] = test system: Serratia marcescens US20; experiment: MIC, DST agar + 10% horse blood; settings: Serratia marcescens US20; DST agar + 10% horse blood; inoculum 0.001 ml of an undilute overnight broth culture; unit inferred; read-out: MIC Agar
Description: as §1

[23] = test system: Enterobacter cloacae N1; experiment: MIC, DST agar + 10% horse blood; settings: Enterobacter cloacae N1; DST agar + 10% horse blood; inoculum 0.001 ml of an undilute overnight broth culture; unit inferred; read-out: MIC Agar
Description: as §1

[24] = test system: Escherichia coli 0111; experiment: MIC, DST agar + 10% horse blood; settings: Escherichia coli, 0111, inoculum 0.001 ml of an undilute overnight broth culture, unit inferred
Description: as §1

[25] = test system: Staphylococcus aureus 1517; experiment: MIC, DST agar + 10% horse blood; settings: Staphylococcus aureus 1517; DST agar + 10% horse blood; inoculum 0.001 ml of an undilute overnight broth culture; unit inferred; read-out: MIC Agar
Description: as §1

[26] = test system: Salmonella typhimurium CT10; experiment: MIC, DST agar + 10% horse blood; settings: Salmonella enterica, TYPHIMURIUM, read-out: MIC Agar
Description: as §1

[27] = test system: Shigella sonnei MB 11967; experiment: MIC, DST agar + 10% horse blood; settings: MB11967, inoculum 0.001 ml of an undilute overnight broth culture, unit inferred
Description: as §1

[28] = test system: Streptococcus pneumoniae CN33; experiment: MIC, DST agar + 10% horse blood; settings: Streptococcus pneumoniae CN33; DST agar + 10% horse blood; inoculum 0.001 ml of an undilute overnight broth culture; unit inferred; read-out: MIC Agar
Description: as §1

[29] = test system: Staphylococcus aureus Oxford; experiment: MIC, DST agar + 10% horse blood; settings: Staphylococcus aureus Oxford; DST agar + 10% horse blood; inoculum 0.001 ml of an undilute overnight broth culture; unit inferred; read-out: MIC Agar
Description: as §1

[30] = test system: Citrobacter freundii E8; experiment: MIC, DST agar + 10% horse blood; settings: Citrobacter freundii, E8, read-out: MIC Agar
Description: as §1

[31] = test system: Bacillus subtilis A; experiment: MIC, DST agar + 10% horse blood; settings: Bacillus subtilis A; DST agar + 10% horse blood; inoculum 0.001 ml of an undilute overnight broth culture; unit inferred; read-out: MIC Agar
Description: as §1

[32] = test system: Proteus mirabilis C977; experiment: MIC, DST agar + 10% horse blood; settings: Proteus mirabilis C977; DST agar + 10% horse blood; inoculum 0.001 ml of an undilute overnight broth culture; unit inferred; read-out: MIC Agar
Description: as §1

[33] = test system: Proteus rettgeri WM16; experiment: MIC, DST agar + 10% horse blood; settings: Providencia rettgeri; Proteus rettgeri WM16; DST agar + 10% horse blood; inoculum 0.001 ml of an undilute overnight broth culture; unit inferred; read-out: MIC Agar
Description: as §1

[34] = test system: Proteus morganii I580; experiment: MIC, DST agar + 10% horse blood; settings: Morganella morganii; Proteus morganii I580; DST agar + 10% horse blood; inoculum 0.001 ml of an undilute overnight broth culture; unit inferred; read-out: MIC Agar
Description: as §1

[35] = test system: Klebsiella aerogenes A; experiment: MIC, DST agar + 10% horse blood; settings: Klebsiella aerogenes A; DST agar + 10% horse blood; inoculum 0.001 ml of an undilute overnight broth culture; unit inferred; read-out: MIC Agar
Description: as §1

[36] = test system: Streptococcus pyogenes CN10; experiment: MIC, DST agar + 10% horse blood; settings: Streptococcus pyogenes CN10; DST agar + 10% horse blood; inoculum 0.001 ml of an undilute overnight broth culture; unit inferred; read-out: MIC Agar
Description: as §1

Molecule `NCC1=C(C(=O)O)N2C(=O)C[C@H]2S1` [compound 37, 2-Aminomethylpenem-3-carboxylic acid] has an MIC [1] of 1 µg/mL (≈ 4.99 µM), an MIC [2] of 16 µg/mL (≈ 79.9 µM) and an MIC [3] of 4 µg/mL (≈ 20 µM). It also gave an MIC [4] of 4 µg/mL (≈ 20 µM), an MIC [5] of 62 µg/mL (≈ 310 µM) and an MIC [6] of 16 µg/mL (≈ 79.9 µM). For the same molecule, the MIC [7] was 16 µg/mL (≈ 79.9 µM), the MIC [8] was 8 µg/mL (≈ 40 µM) and the MIC [9] was 4 µg/mL (≈ 20 µM). The MIC [10] was 2 µg/mL (≈ 9.99 µM), the MIC [11] was 0.5 µg/mL (≈ 2.5 µM) and the MIC [12] was 8 µg/mL (≈ 40 µM). It also gave an MIC [13] of 16 µg/mL (≈ 79.9 µM), an MIC [14] of 8 µg/mL (≈ 40 µM) and an MIC [15] of 1 µg/mL (≈ 4.99 µM). For the same molecule, the MIC [16] was 12.5 µg/mL, the MIC [17] was 50 µg/mL and the MIC [18] was 5 µg/mL. It also gave an MIC [19] of over 50 µg/mL, an MIC [20] of 5 µg/mL and an MIC [21] of over 50 µg/mL. The MIC [22] was 25 µg/mL, the MIC [23] was 50 µg/mL and the MIC [24] was 25 µg/mL. It also gave an MIC [25] of over 50 µg/mL, an MIC [26] of 12.5 µg/mL and an MIC [27] of 12.5 µg/mL. The MIC [28] was 0.5 µg/mL, the MIC [29] was 5 µg/mL and the MIC [30] was 12.5 µg/mL. The MIC [31] was 2.5 µg/mL, the MIC [32] was 25 µg/mL and the MIC [33] was over 50 µg/mL. It also gave an MIC [34] of over 50 µg/mL, an MIC [35] of 50 µg/mL and an MIC [36] of 1.25 µg/mL.
